# Measurements taken from patent EP0418099B1, “Process of preparation of 10, 11-Methylenedioxy-20 (RS) camptothecin and 10, 11-methylenedioxy-20 (S) - camptothecin analog” (RESEARCH TRIANGLE INSTITUTE, priority 1989, dated 1991).
# Counter-ions that a name gives are not always drawn.
# What was measured:
# [1] = Wani et al., J. Med. Chem.; cited from earlier work
# human colorectal tumors = test: Human colon tumor histioculture, inhibition of cell proliferation; assay type: cell-based; details: concentration inhibiting by 50% the incorporation of [H]thymidine into DNA, tumors exposed to compounds for 24 hours, then thymidine for 3 days
# Excerpt: As used herein, the term "cancer" is synonymous with the terms "malignant tumor" and more generally "tumor". […] See H.L. Davis, Chemotherapy of Large Bowel Cancer, Cancer (Phila.) 50: 2638-2646 (1982); J.R. Neefe and P.S. Schein, Chapter 43: The Management of Disseminated Large-Bowel Cancer in Principals of Cancer Treatment, page 402, ed. S.K. Carter, E. Glatstein and R.B. Livingston, McGraw-Hill Co., 1982; K. Mekhail-Ishak, Cancer Research, 49: 4866-4869 (1989) and P.J. Ferguson and Y.C. Cheng, Cancer Research, 49: 1148-1153 (1989).
# Inhibition of tumor cell proliferation was performed in vitro on human colorectal tumors obtained from surgery or biopsy, as described by Vescio et al (Proc. Nat'l. Acad. Sci. USA 84:5029-5033, 1987) with the following modifications: Tumors were cultured 1 day prior to drug addition; tumors were exposed to compounds for 24 hours, washed, and then exposed to ^3[H]thymidine for 3 days.
# topoisomerase I = topoisomerase I (Bos taurus, UniProt A0AAA9TV68); details: relative to camptothecin; cited from earlier work
# 9KB = test: In vitro cytotoxicity test 9KB; assay type: cell-based; details: 9KB test, compared with camptothecin
# Excerpt: (§1) 10,11-MDO-20(S)-CPT is also very potent in the L-1210 leukemia in vivo life prolongation assay. The synthesis of […] is known and described in Wani et al, J. Med. Chem., 29 (11), 2358-2363 (1986) and in U.S. 4,894,456.
# 9PS = test: In vitro cytotoxicity test 9PS; assay type: cell-based; details: 9PS test, compared with camptothecin
# Excerpt: as §1
# L-1210 leukemia = L-1210 leukemia in vivo life prolongation assay; set-up: species or system mice
# Excerpt: as §1
# Sequence of topoisomerase I (A0AAA9TV68 entry or part of it): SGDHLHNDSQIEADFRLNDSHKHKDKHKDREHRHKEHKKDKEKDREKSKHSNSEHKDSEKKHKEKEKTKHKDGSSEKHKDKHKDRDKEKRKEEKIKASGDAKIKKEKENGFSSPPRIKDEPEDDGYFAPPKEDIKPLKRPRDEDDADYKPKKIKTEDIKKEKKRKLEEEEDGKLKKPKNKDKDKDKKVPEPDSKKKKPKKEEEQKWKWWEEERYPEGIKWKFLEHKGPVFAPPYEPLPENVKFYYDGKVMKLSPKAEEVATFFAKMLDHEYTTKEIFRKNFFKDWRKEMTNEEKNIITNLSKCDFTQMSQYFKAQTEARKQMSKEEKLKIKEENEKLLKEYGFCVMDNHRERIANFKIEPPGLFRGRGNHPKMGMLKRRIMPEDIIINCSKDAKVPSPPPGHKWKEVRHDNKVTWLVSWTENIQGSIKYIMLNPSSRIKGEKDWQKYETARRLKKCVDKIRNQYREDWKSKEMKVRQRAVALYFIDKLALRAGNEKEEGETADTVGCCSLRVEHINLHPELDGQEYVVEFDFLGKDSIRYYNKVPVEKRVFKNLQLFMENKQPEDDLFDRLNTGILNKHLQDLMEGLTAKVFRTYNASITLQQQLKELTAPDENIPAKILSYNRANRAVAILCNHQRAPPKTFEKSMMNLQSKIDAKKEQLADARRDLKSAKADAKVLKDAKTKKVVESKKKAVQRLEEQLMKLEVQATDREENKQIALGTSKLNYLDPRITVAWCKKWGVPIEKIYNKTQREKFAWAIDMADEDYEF
smiles,measurement,setting,value
"CCC1(O)C(=O)OCc2c1cc1n(c2=O)Cc2cc3cc(OC)c(OC)cc3nc2-1 (racemic) [10,11-dimethoxy-20(RS)-CPT]",activity,[1],totally inactive
"CCC1(O)C(=O)OCc2c1cc1n(c2=O)Cc2cc3cc4c(cc3nc2-1)OCO4 (racemic) [Compound 3, 10,11-MDO-20(RS)-CPT]",IC50,human colorectal tumors,~5 ng/mL
same,potency in the inhibition of topoisomerase I,topoisomerase I,three to five times the potency of camptothecin
"CCC1(O)C(=O)OCc2c1cc1n(c2=O)Cc2cc3c(N)c4c(cc3nc2-1)OCO4 (racemic) [Compound 4, 9-AMINO-10,11-MDO-20(RS)-CPT]",IC50,human colorectal tumors,~5 ng/mL
"CCC(O)(C(=O)O)c1cc2n(c(=O)c1CO)Cc1cc3cc4c(cc3nc1-2)OCO4 (racemic) [Compound 8, 10,11-MDO-20(RS)-CPT, Na^+ SALT]",IC50,human colorectal tumors,~10 ng/mL
"CC[C@@]1(O)C(=O)OCc2c1cc1n(c2=O)Cc2cc3cc4c(cc3nc2-1)OCO4 [Compound 2, 10,11-MDO-20(S)-CPT]",ED50,9KB,equal to or more potent than camptothecin itself
same,ED50,9PS,equal to or more potent than camptothecin itself
same,life prolongation,L-1210 leukemia,very potent
